Experiment [1] deals with osteoclast-like cells formed from mouse bone marrow-derived cells. The experiment in a line: Bone resorption activity of osteoclast-like cells on ivory section (type I collagen cross-linked C-telopeptide in medium, ELISA). In kind it is cell-based. The note with it: Example 4 experiment: Compound A 10^−7 M, risedronic acid 10^−8 M, alone or simultaneously, 9 days on ivory section, vs Comparative Example 4-1, 3 to 4 wells. The source says: Multinuclear osteoclast-like cells were formed from mouse bone marrow-derived cells by collecting bone marrows of the femur and the tibia from a mouse, removing erythrocytes according to the ordinary method, plating the residual components in a 96-well plate containing an ivory section at the density of 4×10^5 cells/well, culturing the cells overnight, then adding a medium containing 1α,25-dihydroxy vitamin D3 (referred to as 1α,25(OH)2D3 hereinbelow) in order to be at 10^−9 M, and culturing the cells in the presence of 1α,25(OH)2D3 for 9 days. An αMEM medium containing 10% fetal calf serum (referred to as 10% FCS-αMEM hereinbelow) was used as a medium. When 1α,25(OH)2D3 was added to the mouse bone marrow-derived cells, each of a solvent alone (Comparative Example 4-1), N-hydroxy-4-{5-[4-(5-isopropyl-2-methyl-1,3-thiazol-4-yl)phenoxy]pentoxy}-benzamidine (described as Compound A in Table 4) alone (Comparative Example 4-2), risedronic acid alone (Comparative Example 4-3), and N-hydroxy-4-{5-[4-(5-isopropyl-2-methyl-1,3-thiazol-4-yl)phenoxy]pentoxy}-benzamidine (described as Compound A in Table 4) and risedronic acid (Example 4) were simultaneously added to the mouse bone marrow-derived cell culture system, and the effects on formation of osteoclast-like cells were evaluated. The following groups were set for the experiment.
For addition of N-hydroxy-4-{5-[4-(5-isopropyl-2-methyl-1,3-thiazol-4-yl)phenoxy]pentoxy}-benzamidine (Compound A), in both the Comparative Examples and Example, N-hydroxy-4-{5-[4-(5-isopropyl-2-methyl-1,3-thiazol-4-yl)phenoxy]pentoxy}-benzamidine (Compound A) was dissolved in dimethylsulfoxide (DMSO) at a concentration of 10^−4 M, and the resultant solution was added to the medium to make 10^−7 M at a 1000-fold dilution. […]
Both in Comparative Examples and Example, the culture medium was collected 9 days after the start of culture, and the quantity of type I collagen cross-linked C-telopeptide in the medium was measured. […]
(An ELISA detects its analyte on a solid surface through an enzyme-linked reagent.)

Experiment [2] has the same test system. The experiment in a line: Formation of osteoclast-like cells (TRAP-positive multinuclear cells) from mouse bone marrow-derived cells cultured with 1α,25(OH)2D3. In kind it is cell-based. The note with it: alone or simultaneously, 7 days; for number of osteoclast-like cells formed, taking Comparative Example 1-1 as 100%: Example 1 experiment (FIG. 1): Compound A 10^−7 M; for number of osteoclast-like cells formed, taking Comparative Example 1-1 as 100% / number of osteoclast-like cells formed, taking Comparative Example 2-1 as 100%: 3 wells; for number of osteoclast-like cells formed, taking Comparative Example 2-1 as 100%: Example 2 experiment (FIG. 2): Compound A 10^−6 M; for number of osteoclast-like cells formed, taking Comparative Example 3-1 as 100%: Example 3 experiment (FIG. 3): Compound A 10^−7 M, 4 to 5 wells. An excerpt: Multinuclear osteoclast-like cells were formed from mouse bone marrow-derived cells by collecting bone marrows of the femur and the tibia from a mouse, removing erythrocytes according to the ordinary method, plating the residual components in a 96-well plate at the density of 4×10^5cells/well, culturing the cells overnight, then adding a medium containing 1α,25-dihydroxy vitamin D3 (referred to as 1═,25(OH)2D3 hereinbelow) in order to be at 10^−9M, and culturing the cells in the presence of 1α,25(OH)2D3 for 7 days. An αMEM medium containing 10% fetal calf serum (referred to as 10% FCS-αMEM hereinbelow) was used as a medium. When 1α,25(OH)2D3 was added to the mouse bone marrow-derived cells, each of a solvent alone (Comparative Example 1-1), N-hydroxy-4-{5-[4-(5-isopropyl-2-methyl-1,3-thiazol-4-yl)phenoxy]pentoxy}-benzamidine (described as Compound A in Figure) alone (Comparative Example 1-2), risedronic acid alone (Comparative Example 1-3), and N-hydroxy-4-{5-[4-(5-isopropyl-2-methyl-1,3-thiazol-4-yl)phenoxy]pentoxy}-benzamidine (described as Compound A in Figure) and risedronic acid simultaneously (Example 1) were added to the mouse bone marrow-derived cell culture system, and the effects on formation of osteoclast-like cells were evaluated. The following groups were set for the experiment.
For addition of N-hydroxy-4-{5-[4-(5-isopropyl-2-methyl-1,3-thiazol-4-yl)phenoxy]pentoxy}-benzamidine (Compound A), in both the Comparative Examples and Example, N-hydroxy-4-{5-[4-(5-isopropyl-2-methyl-1,3-thiazol-4-yl)phenoxy]pentoxy}-benzamidine (Compound A) was dissolved in dimethylsulfoxide (DMSO) at a concentration of 10^−4 M, and the resultant solution was added to the medium to make 10^−7 M at a 1000-fold dilution. For addition of risedronic acid, in both the Comparative Examples and Example, sodium risedronate hydrate was dissolved in phosphate buffered saline (PBS) at a concentration of […], and the resultant solution was added to the medium to make 3×10^−7 M at a 1000-fold dilution. On the third day after addition of the test compound(s) of the respective conditions, the medium was replaced with fresh 10% FCS-αMEM containing the test compound(s) of the respective conditions in both the Comparative Examples and Example.
In both the Comparative Examples and Example, on the 7th day after the start of culture, the medium was removed, the cells were fixed with phosphate buffered formalin and stained by tartrate-resistant acid phosphatase (abbreviated as TRAP hereinbelow), an osteoclast marker, using Sigma Acid Phosphatase, Leukocyte (TRAP) kit (Sigma, No. 386A), and the number of TRAP-positive multinuclear cells having 6 or more cell nuclei was counted as osteoclast-like cells under an optical microscope.
The experiment was conducted in a similar manner to that described in Example 1, except that the concentration of N-hydroxy-4-{5-[4-(5-isopropyl-2-methyl-1,3-thiazol-4-yl)phenoxy]pentoxy}-benzamidine in the medium was set at 10^−6M, and the following groups were set.
The experiment was conducted in a similar manner to that described in Example 1, except that clodronic acid at a concentration of 10^−5 M was allowed to act on the cells in place of risedronic acid at a concentration of 3×10^−7 M in the Comparative Examples and Example, and the following groups were set.

[3] abbreviates: Mus musculus, Osteoclast-like, 216 h, read-out: Bone resorption inhibitory rate (%).
The mark [4] stands for this setting: Mus musculus, Osteoclast-like, 168 h, Example 1 experiment: Compound A 10^−7 M, risedronic acid 3×10^−7 M, vs Comparative Example 1-1, read-out: Osteoclast-like cell formation inhibition rate (%).
Setting [5] is: Mus musculus, Osteoclast-like, 168 h, Example 2 experiment: Compound A 10^−6 M, risedronic acid 3×10^−7 M, vs Comparative Example 2-1, read-out: Osteoclast-like cell formation inhibition rate (%).
Setting [6] is: Mus musculus, Osteoclast-like, 168 h, Example 3 experiment: Compound A 10^−7 M, clodronic acid 10^−5 M, vs Comparative Example 3-1, read-out: Osteoclast-like cell formation inhibition rate (%).

Where two headings read alike, the source gives them in different places.

With `Cc1nc(-c2ccc(OCCCCCOc3ccc(/C(N)=N/O)cc3)cc2)c(C(C)C)s1` [Compound A, N-hydroxy-4-{5-[4-(5-isopropyl-2-methyl-1,3-thiazol-4-yl)phenoxy]pentoxy}-benzamidine], the inhibition at 0.1 µM in experiment [1] (setting [3]) is 13.9%; in experiment [2] (setting [4]), 18.7%; in experiment [2] (setting [6]), 4.8%. In experiment [2] (risedronic acid 3×10^−7 M), the “number of osteoclast-like cells formed, taking Comparative Example 1-1 as 100%” value is given as 81.3%. Further, the “number of osteoclast-like cells formed, taking Comparative Example 2-1 as 100%” value in experiment [2] (risedronic acid 3×10^−7 M) turned out to be 50%. The “number of osteoclast-like cells formed, taking Comparative Example 3-1 as 100%” value in experiment [2] (clodronic acid 10^−5 M) is recorded as 95.2%. In addition, the inhibition at 1 µM in experiment [2] (setting [5]) turned out to be 50%.

On to `O=P(O)(O)C(O)(Cc1cccnc1)P(=O)(O)O` [risedronic acid], for which, in experiment [1] (listed as Comparative Example 4-3), the “Bone resorption inhibitory rate (%)” value was 18.3%. The inhibition at 0.01 µM in experiment [1] (setting [3]) was 18.3%. Moreover, in experiment [2] (risedronic acid 3×10^−7 M), the “number of osteoclast-like cells formed, taking Comparative Example 1-1 as 100%” value is 88.1% and the “number of osteoclast-like cells formed, taking Comparative Example 2-1 as 100%” value is 88.1%. Moreover, the inhibition at 0.3 µM in experiment [2] (setting [4]) turned out to be 11.9%. In addition, the inhibition at 0.3 µM in experiment [2] (setting [5]) came to 11.9%.

For `O=P(O)(O)C(Cl)(Cl)P(=O)(O)O` [clodronic acid], the “number of osteoclast-like cells formed, taking Comparative Example 3-1 as 100%” value in experiment [2] (clodronic acid 10^−5 M) came out at 93.9%. Moreover, in experiment [2] (setting [6]), the inhibition at 10 µM stood at 6.1%.

The values are drawn from patent US20100216747A1, “PREVENTIVE AGENT OR THERAPEUTIC AGENT FOR DISEASE CAUSED BY ABNORMAL BONE METABOLISM” (TEIJIN PHARMA LIMITED, priority 2007, published 2010).
